Source: patent US20250288547A1, “TREATMENT OF DISEASES CAUSED BY RNA VIRUSES” (Amerimmune LLC, priority 2021, published 2025)

Tests used:
[1] = test system: red blood cell (RBC) layer in the PBMC layer (RBC aggregation); test: “Red ring” (contaminating RBC layer in PBMC layer) in COVID-19 patient samples; format: cell-based, human; conditions: PBMCs from COVID-19 patient samples, 1 micromolar, room temperature, 17 hours
Source text: One of the observations made during the preparation of peripheral blood mononuclear cells (PBMC) for some of the experiments described herein was the presence of a contaminating red blood cell (RBC) layer in the PBMC layer, which was referred to as a “red ring”. This “red ring” was present in all COVID-19 patient samples, with no difference between critically ill patients and those who were only on supportive care outside the ICU setting (see FIG. 12A).
When PBMCs isolated from COVID-19 patient samples were incubated with Emricasan (1 micromolar) at room temperature for 17 hours, a decrease in the “red ring” was observed.

Caspase 1 = Caspase 1 (Homo sapiens, UniProt P29466); test: Active caspase-1 FLICA flow cytometry, whole blood from COVID-19 (+) patients incubated with Emricasan (Example 7); format: cell-based; parameters: dose or concentration left out as unconfirmed; conditions: 17 hours (overnight) room temperature on a rocker, 3 samples from COVID-19 patients
Procedure: Whole blood from COVID-19 (+) patients was incubated either (A) without addition of Emricasan (Untreated) or (B) with Emricasan (Sigma Aldrich, MO, SML2227-5 MG), 1 μM final concentration for 3.5 hours at room temperature (Treated). Following incubation with or without Emricasan, PBMCs were purified using an Accuspin System—Histopaque 1077 (Sigma Aldrich, MO, A6929) as per the manufacturer's instructions. Purified Treated and Untreated PBMCs were incubated with nigericin (Immunochemistry Technologies, MN) as per the manufacturer's instructions for 2 hours. […] PMBCs were washed with cell wash buffer (Immunochemistry Technologies, MN) to remove unbound FLICA probes. Washed PBMCs were FACS-sorted using CD45 PE-CY7 [HI30], CD3 AF700 [UCHT1], CD4 PE [RPA-T4], CD45RO PerCP-EF710 [UCHL1], and Viability Dye 780 (Thermo Fisher Scientific, Carlsbad, CA) to identify viable CD3-cells as well as CD3+ cells and CD3+CD4+ T cells. Lymphocytes were identified using a standard gating schematic that incorporated gating of lymphocytes on a FSC/SSC plot and singlets on a FSC-A/FSC-H plot. Lymphocytes were further identified as CD45+ on a CD45/SSC plot and subsequent CD3−, CD3+, and CD3+CD4+ cells were identified on a CD45+CD3/CD4 plot.
In another experiment, whole blood was incubated with […] Emricasan for 17 hours (overnight between 5 PM to 10 AM) at room temperature on a rocker. […]

caspase-1 = molecular target: T1, caspase-1 (Homo sapiens, UniProt P29466); test: Ex vivo active caspase-1 in CD4 T cells, whole blood incubated with caspase inhibitors with or without nigericin (Example 9); format: cell-based; conditions: inhibitor incubation, 24 hrs later with or without nigericin; for T-helper cell caspase-1 expression: COVID-19 whole blood samples
T1 sequence (P29466 120-297 limits assumed): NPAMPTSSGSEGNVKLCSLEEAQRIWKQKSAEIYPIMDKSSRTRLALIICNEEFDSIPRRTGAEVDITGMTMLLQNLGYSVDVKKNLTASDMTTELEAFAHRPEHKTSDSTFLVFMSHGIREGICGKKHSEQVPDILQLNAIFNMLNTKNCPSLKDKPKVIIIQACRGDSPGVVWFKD
T1 sequence (P29466 317-404 limits assumed): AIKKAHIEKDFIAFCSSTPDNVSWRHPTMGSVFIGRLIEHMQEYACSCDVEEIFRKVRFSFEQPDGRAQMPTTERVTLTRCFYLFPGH

caspase-3 = molecular target: T2, caspase-3 (Homo sapiens, UniProt P42574); test: Caspase-3 in red blood cells incubated with patient plasma (Example 9); format: cell-based
T2 construct: endogenous in cells; host or cells: human red blood cells incubated with patient plasma
T2 sequence (P42574 29-175 limits assumed): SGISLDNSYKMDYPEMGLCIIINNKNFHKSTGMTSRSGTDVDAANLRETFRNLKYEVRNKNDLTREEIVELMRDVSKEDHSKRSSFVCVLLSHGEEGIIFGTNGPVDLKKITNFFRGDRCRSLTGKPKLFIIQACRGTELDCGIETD
T2 sequence (P42574 176-277 limits assumed): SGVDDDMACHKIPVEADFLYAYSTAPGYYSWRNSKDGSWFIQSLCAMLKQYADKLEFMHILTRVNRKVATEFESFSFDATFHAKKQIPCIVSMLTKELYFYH

mild COVID-19 = test: Phase 1 double-blinded placebo-controlled safety and tolerability study in symptomatic outpatient mild-COVID-19 patients (Example 10); format: in vivo, human
Procedure: A double-blinded, placebo-controlled randomized safety and tolerability study (1:1 active: placebo) was performed in a number symptomatic outpatient mild-COVID-19 patients receiving standard of care therapy. A total of 13 patients were enrolled at a single site in New York City. Treatment involved administering Emricasan (EMR) (or placebo) at 25 mg BID dosing for 14 days, with follow-up for an additional month. […] This study was thus designed to evaluate safety and tolerability, with the primary endpoint being the difference, if any, between treatment-related adverse events (AEs), including severe adverse events (SAEs), if any, in the active (EMR) and placebo groups through day 14. The pharmacokinetics (PK) of EMR has been extensively studied in earlier clinical trials. Accordingly, patients in this Phase 1 study were sampled at the end of the study to confirm that Emricasan pharmacokinetics was not altered in COVID-19 patients. Secondary endpoints included various clinical and laboratory measures and patient reported outcomes (PROs) using a COVID-19-related assessment tool.

[2] = molecular target: T3, main protease of SARS-COV-2 (Severe acute respiratory syndrome coronavirus 2, UniProt P0DTD1); conditions: subsequent reports; cited from earlier work
T3 construct: the main protease of SARS-COV-2

ACE-2 receptor = conditions: subsequent reports; cited from earlier work
[3] = in vivo; cited from earlier work

Compound | “red ring” (contaminating RBC layer in PBMC layer) [1] | samples showing inhibition of nigericin-induced Caspase-1 activity (Caspase 1) | T-helper cell caspase-1 expression (caspase-1) | T-helper cell caspase-1 upregulation (caspase-1; healthy subjects' whole blood) | RBC caspase-3 up-regulation (caspase-3; healthy subjects' RBCs, COVID-19 plasma incubated samples) | RBC baseline caspase-3 expression levels (caspase-3; influenza-plasma incubated samples) | serious adverse events (mild COVID-19; 25 mg BID 14 days, mild COVID-19 outpatients) | safety and tolerability (mild COVID-19; 25 mg BID 14 days, during 2 weeks of dosing and at week 10 follow up, compared to placebo) | resolution of symptoms most commonly associated with mild COVID-19 (cough, headache, fatigue) (mild COVID-19; patients who completed treatment, at day 7, continued through Day 45) | inhibition of main protease activity [2] | inhibition of ACE-2 receptor binding activity for SARS-COV-2 (ACE-2 receptor) | safety and tolerance profile [3]
C[C@H](NC(=O)C(=O)Nc1ccccc1C(C)(C)C)C(=O)N[C@@H](CC(=O)O)C(=O)COc1c(F)c(F)cc(F)c1F [Emricasan, (3S)-3-{[(2S)-2-{[2-(2-tert-butylanilino)-2-oxoacetyl]amino}propanoyl]amino}-4-oxo-5-(2,3,5,6-tetrafluorophenoxy) pentanoic acid] | decrease | ⅓ | suppressed | prevented its upregulation | suppressed | did not change | no reports of serious adverse events | safe and well tolerated | complete resolution | may also inhibit | inhibit the binding activity | excellent safety and tolerance profile
CCO[C@@H]1OC(=O)C[C@@H]1NC(=O)[C@@H]1CCCN1C(=O)[C@@H](NC(=O)c1ccc(N)c(Cl)c1)C(C)(C)C [VX765, Belnacasan] |  |  | did not show a strong similar suppressive effect |  |  |  |  |  |  |  |  | 
